What was measured:
[1] = molecular target: T1, REV-ERBα LBD (human; residues 281-614 Δ324-422) (Homo sapiens, UniProt P20393, DEL324-422); assay: TR-FRET corepressor interaction assay (REV-ERBα LBD, FITC-SMRT peptide); format: biochemical; conditions: Table 2, read-out: REVERBα agonism (EC50 class, FRET assay)
T1 construct: 6×Histag-REV-ERBα LBD (human; residues 281-614 Δ324-422); made in house; host or cells: Escherichia coli
Procedure, shortened: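 Compound serial dilutions (in DMSO, triplicate) incubated 2 h at 4 °C; Tb donor excited at 340 nm, emission read at 495 nm and FITC acceptor at 520 nm. TR-FRET ratio (520/495 nm) plotted against ligand concentration and fitted to a sigmoidal dose-response curve.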

REV-ERBβ = molecular target: T2, REV-ERBβ (Homo sapiens, UniProt Q14995); assay: TR-FRET corepressor interaction assay (REV-ERBβ, FITC-SMRT peptide); format: biochemical; conditions: Table 2, read-out: REVERBβ agonism (EC50 class, FRET assay)
T2 construct: 6×Histag-REV-ERBα LBD (human; residues 381-579); made in house; host or cells: Escherichia coli
T2 sequence (Q14995 381-579): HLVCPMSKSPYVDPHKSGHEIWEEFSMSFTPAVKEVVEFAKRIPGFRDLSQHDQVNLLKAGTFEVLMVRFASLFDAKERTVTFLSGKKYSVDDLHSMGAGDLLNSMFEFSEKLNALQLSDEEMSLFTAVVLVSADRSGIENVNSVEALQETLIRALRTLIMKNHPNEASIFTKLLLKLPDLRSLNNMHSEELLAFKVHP
Procedure: TR-FRET corepressor interaction assay. The time-resolved fluorescence resonance energy transfer (TR-FRET) assay was performed in black low-volume 384-well plates (Greiner). […] Ligand stocks were prepared via serial dilution in DMSO, added to wells in triplicate, and plates were incubated at 4° C. for 2 h and read using a BioTek Synergy Neo multimode plate reader. The Tb donor was excited at 340 nm; its fluorescence emission was monitored at 495 nm, and the acceptor FITC emission was measured at 520 nm; and the TR-FRET ratio was calculated as the signal at 520 nm divided by the signal at 495 nm. Data were plotted using GraphPad Prism as TR-FRET ratio vs. ligand concentration and fit to sigmoidal dose response curve equation.
Exemplary compounds of the present disclosure were assayed as described above to assess agonism of REV-ERBα and REV-ERBβ.

T1 sequence (P20393 with tags, fused parts or gaps DEL324-422): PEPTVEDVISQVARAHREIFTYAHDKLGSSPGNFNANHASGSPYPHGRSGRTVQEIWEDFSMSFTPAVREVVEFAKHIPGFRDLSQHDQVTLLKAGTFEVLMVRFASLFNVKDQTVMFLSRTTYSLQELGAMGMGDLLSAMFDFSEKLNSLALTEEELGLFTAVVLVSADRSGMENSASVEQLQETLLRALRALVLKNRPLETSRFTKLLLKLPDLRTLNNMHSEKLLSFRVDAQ
T1 sequence (Q9Y618 2335-2356 partner limits assumed): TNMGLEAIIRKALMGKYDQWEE

## CCC(C)n1cc(CCNS(=O)(=O)N(C)C)c2ccc(-c3ccncc3)cc21 (stereo not shown) [Compound 230]
[1]
  EC50: < 500 nM
REV-ERBβ
  EC50: 500 to 3000 nM

## CC(C)Cn1cc([C@H](NS(=O)(=O)C2CC2)C(F)(F)F)c2ccc(C3CC3)cc21 [Example 310, (S)—N-(1-(6-cyclopropyl-1-isobutyl-1H-indol-3-yl)-2,2,2-trifluoroethyl)cyclopropanesulfonamide]
[1]
  EC50: < 500 nM
REV-ERBβ
  EC50: 500 to 3000 nM
